The values that follow are results of earlier work, collected in patent US8871712B2, “Somatostatin analogue formulations” (Camurus AB, priority 2005, dated 2014).

The conditions of the data set: in vivo.

Regarding `C[C@@H](O)[C@@H]1NC(=O)[C@H](CCCCN)NC(=O)[C@@H](Cc2c[nH]c3ccccc23)NC(=O)[C@H](Cc2ccccc2)NC(=O)[C@@H](NC(=O)[C@H](N)Cc2ccccc2)CSSC[C@@H](C(=O)N[C@H](CO)[C@@H](C)O)NC1=O` [Octreotide, D-Phe-Cys-Phe-D-Trp-Lys-Thr-Cys-Thr-ol (2-7 disulphide bridge)], the Terminal half-life result is “around 1.7 hours”.
